In one data set the test system is E. coli. Nature of the data set: Cell morphology by phase contrast microscopy. Type of data set: cell-based, Escherichia coli. As to conditions: 10× MIC, 5 min exposure, preliminary. On the procedure: To explore the potential correlation between general membrane destabilization and our FoR data, we conducted a brief preliminary examination of E. coli cell morphology following a pulsed exposure to our top four peptide candidates at 10× MIC. Cells were imaged by using phase contrast microscopy after 5 min of exposure. […] However, additional research using complementary techniques are necessary to conclusively characterize their killing mechanism.

Data set [1] deals with E. coli ATCC 25922. Nature of the data set: Frequency of resistance determination (p0 method). The format is cell-based, Escherichia coli. As to conditions: E. coli ATCC 25922, 40 cultures, 4 × MIC, 24–48 h, colistin as reference, triplicate. The text has this: The method was based on the Fluctuation assay (p0 method; Luria and Delbrück) for determination of mutation rate[33],[34], and optimized for selection of mutants in liquid medium. Colistin sulfate (Thermo Scientific, 15575146) served as control in experimentation. Initially, the MIC of colistin and peptides was verified through broth dilution in 96-well plates (as detailed above). In order to account for potential phenotypic heterogeneity among colonies derived from the same frozen stock, multiple colonies of E. coli ATCC 25922 were picked and inoculated in 2 mL MHII broth overnight at 37°C with continuous shaking. The following day, aliquots of colistin and peptide solutions were prepared in MHII broth at working concentrations 20 times the MIC. […] The plates were incubated at 37 °C in a humidified box, and OD was measured at 600 nm using a microplate reader (Victor Nivo, Perkin-Elmer) after 0, 24 and 48 h of incubation. […]
To calculate the viable bacterial counts, the overnight culture was serially diluted 10-fold in MHII, after which 5 µl of the 10^− 3 – 10^− 9 dilutions were spotted onto MHII agar plates and incubated overnight at 37 °C. CFUs were counted the following day to determine CFU/mL of the overnight culture. […] The mutation rate, or frequency of resistance, was calculated using the following formula: […]

Data set [2] has as its system E. coli ATCC 25922. Nature of the data set: Minimum inhibitory concentration (MIC), broth dilution. The format is cell-based, Escherichia coli. As to conditions: D-form versus all-L parent. On the procedure:
(§1) The panel of bacterial reference strains used in this work for assessment of synthetic peptide activity originated from the American Type Culture Collection (ATCC) and was obtained from the Diagnostic section at the Department of Microbiology, Oslo University Hospital. The strains used were as follows: E. coli ATCC 25922, K. pneumoniae ATCC 13883, A. baumannii ATCC 17978, S. aureus ATCC 29213, and E. faecalis ATCC 29212.
(§2) Bacterial strains were plated on cation-adjusted Mueller-Hinton (MH II) agar plates and incubated at 37 °C overnight. The day after single colonies were picked and resuspended in sterile-filtered saline (0.9%). The OD of each bacterial suspension was adjusted to McFarland standard 0.5 using a spectrophotometer (UV-1800, Shimadzu), and the suspension further diluted 1:100 in MH II broth, corresponding to 10^6 colony forming units (CFU) per mL. The inoculum suspension was used for MIC, MBC, time-kill and protease stability assessments as described below. To ensure correct inoculum sizes, 10 µL of the bacterial suspensions were diluted 2000-fold in sterile-filtered saline (0.9%) and 100 µL plated onto MH II agar plates. After overnight incubation at 37 °C, colonies were counted. If found to be outside the acceptable number (20–80 colonies per plate corresponding to ∼10^6 CFU/mL), results from further analyses were discarded.
(§3) The peptides were serially diluted (two-fold) directly in 96-well plates (Greiner, MICROPLATE, 96 WELL, PP, U-BOTTOM, NATURAL, 650261) containing MH II broth, corresponding to concentrations in the range 256–0.5 µM. An equal volume of bacterial suspension was added to each well, resulting in a final inoculum of 5 × 10^5 CFU/mL and final peptide concentrations of 128–0.25 µM. The 96-well plates were incubated for 18–24 h at 37 °C, after which the OD of each well was measured at 600 nm in a plate reader (Victor Nivo, Perkin-Elmer). The minimum inhibitory concentration (MIC) was estimated as the lowest concentration of peptide that produced OD600 measurements similar to the control wells containing no bacteria. The experiments were performed in triplicate. Two-fold variations in MIC values were often observed between replicates.

Another data set has as its system S. aureus ATCC 29213. The data set is described as above. Type of data set: cell-based. To be noted: D-form versus all-L parent. The procedure:
as §1, §2, §3

For a further data set, the system named is K. pneumoniae ATCC 13883. Described as above. To be noted: D-form versus all-L parent. The format is cell-based. The procedure: as §1, §2, §3
A further data set concerns E. faecalis ATCC 29212. The data set is described as above. Type of data set: cell-based. To be noted: D-form versus all-L parent. On the procedure: as §1, §2, §3
A further data set can be described thus: Solubility of peptides. The format is physicochemical. To be noted: solvent as stated in the value.
Data set [3] deals with E. coli ATCC 25922. Nature of the data set: Time-kill experiments. As to conditions: E. coli ATCC 25922, at the MBC; detection limit 100 CFU/mL; triplicate. Type of data set: cell-based, Escherichia coli. The procedure: as §2
Four Eppendorf tubes were set up containing 0.5 mL of E. coli inoculum, prepared as described above. To the tubes were added peptides corresponding to final concentrations of ½×MIC, MIC and 2×MIC (see Fig. 3). One tube served as growth control (no added peptide). Then, 50 µL of culture were sampled from the tubes at timepoints 0, 0.25, 0.5, 2, 5 and 24 h. […] The day after, CFU/mL was calculated based on colony counts and dilution factor. […]

Non-standard residues stand in square brackets, D forms with d. Residues, ends and D or L forms follow the SMILES beside them. No end group written: not given here.

As to `CC[C@@H](C)[C@@H](NC(=O)[C@@H](CC(C)C)NC(=O)[C@@H](CCC(N)=O)NC(=O)[C@@H](CC(C)C)NC(=O)[C@H](NC(=O)[C@@H](C)NC(=O)[C@@H](CCCCN)NC(=O)[C@@H](CCCCN)NC(=O)[C@@H](CCCCN)NC(=O)[C@@H](CCCCN)NC(=O)[C@@H](CCCCN)NC(=O)[C@H](N)C(C)C)C(C)C)C(=O)N[C@H](CC(C)C)C(=O)N[C@H](CCCCN)C(=O)N[C@H](Cc1ccccc1)C(N)=O` [D-1a-N10] (H-[dV][dK][dK][dK][dK][dK][dA][dV][dL][dQ][dL][dI][dL][dK][dF]-NH2; N-terminus assumed), in the data set on E. coli, the “Membrane morphology of cells (in words)” value is given as “indications of changes in membrane morphology”. Also, the “Frequency of resistance (FoR) (in words)” value in the data set on E. coli ATCC 25922 [1] is “eliminated mutagenicity”. In addition, the “Fold improvement (lowering) of MIC compared to parent 1a-N10, E. coli” value with E. coli ATCC 25922 [2] was 2 fold. The “Fold lowering of MIC compared to parent 1a-N10, S. aureus” value in the data set with S. aureus ATCC 29213 was 8 fold. Also, the “Fold improvement (lowering) of MIC compared to parent 1a-N10, K. pneumoniae” value in the data set with K. pneumoniae ATCC 13883 is given as 2 fold. Moreover, the “Fold lowering of MIC compared to parent 1a-N10, E. faecalis” value with E. faecalis ATCC 29212 amounted to 4 fold.

On to VKKKKKAVLQLILKF-NH2 [1a-N10], for which the “Membrane morphology of cells (in words)” value with E. coli is “no explicit membrane defects”. The “Frequency of resistance (FoR) (in words)” value in the data set on E. coli ATCC 25922 [1] is “low resistance frequencies”. Further, the “Solubility (in words)” value in the data set “Solubility of peptides” is on record as “soluble in PBS alone”. In addition, the “Time after which CFU/ml was below the detection limit” value in the data set on E. coli ATCC 25922 [3] came out at 0.5 h.

Values taken from paper PMC12022103 (Scientific Reports, 2025).
